For the experiment, the system named is CEM cells HIV-1 protection, formazan growth assay. Briefly: NCI AIDS Antiviral Assay. The note with it: for IC50: measured here: growth of uninfected CEM cells. The procedure, abridged: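 Screen of anti-HIV-1 activity in human CEM cells using a formazan-based growth measurement at five drug concentrations. Hits with 50% or greater protection were repeated, and confirmation required reproducible complete protection.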

Consider 30 compounds from PubChem BioAssay AID179 (DTP/NCI, 2004).

Activity calls are given as the source filed them.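 The calls were made as follows: active = compounds giving half or more protection of infected cells from virus-caused growth loss, again on retest; inactive = the rest.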 Bounds are passed on as bounds.

Turning to `CC(=O)CC(=O)CCCC(=O)Nc1ccc(Cl)cc1Cl`, the result was inactive.

On to `O=Cc1c(C(=O)O)[nH]c(=O)[nH]c1=O`, for which the EC50 (commonly the concentration at which the effect is half-maximal) was over 200 µM and the IC50 – broadly, the concentration that gives 50% inhibition – was over 200 µM.

For the compound `CC(=O)Nc1ccc(C2CC(c3ccc([N+](=O)[O-])cc3)=Nc3ccccc3S2=O)cc1` (stereo unspecified), the EC50 is over 3.31 µM and the IC50 is over 3.31 µM.

For the compound `CCOC(=O)C1(C)CC12CCCCC2` (stereo unspecified), the EC50 is over 200 µM and the IC50 was over 200 µM.

With `CC1=NC(C)(C)CC2CCC(O)C12` (stereo unspecified), the EC50 was over 200 µM and the IC50 is over 200 µM.

`CC1(C)c2ccccc2C(=O)C1(Br)Cc1ccccc1` (stereo unspecified): the EC50 was over 200 µM and the concentration for half-maximal inhibition (IC50) worked out at 9.55 µM.

With `CCOC1OC(COC(=O)C(C)(C)C)C(O)CC1n1cc(C)c(=O)[nH]c1=O` (stereo unspecified), the EC50 is over 200 µM and the IC50 is over 200 µM.

Take `CC(=O)N1C(OC(C)C)CC(C)N1c1ccccc1` (stereo unspecified): the EC50 was over 200 µM and the IC50 was over 200 µM.

For `O=C1OC(CN2CCN(c3ccccc3)CC2)CN1C(=S)Nc1ccccc1` (stereo unspecified), the EC50 was over 200 µM and the IC50 was found to be 115 µM.

`CCOC(=O)N[C@@H]1C2CC(=O)C(O2)[C@@H]1OC` (stereo partly specified): the outcome was inactive.

`Cc1cc(=O)c2c(o1)-c1c(cc(O)c(O)c1C(=O)O)OC2`: the EC50 is over 871 µM and the IC50 worked out at 57.5 µM.

As to `O=c1[nH]c(=O)n(C2CC(F)C(CO)O2)cc1CO` (stereo unspecified), the EC50 was over 479 µM and the IC50 was determined as 186 µM.

Regarding `NC(=S)NN=C1Cc2ccccc2C1`, the EC50 is over 200 µM and the IC50 was 145 µM.

Take `O=c1cc(Nc2cccc(O)c2)[nH]c(=O)[nH]1`: the outcome was inactive.

`Cc1ccc(S(=O)(=O)OC2CCN(C)CC2)cc1`: the EC50 was over 200 µM and the IC50 is over 200 µM.

`COc1ccc(N=Nc2c(C)c(C#N)c(=S)n(C3OC(COC(C)=O)C(OC(C)=O)C(OC(C)=O)C3OC(C)=O)c2-c2ccccc2)cc1` (stereo unspecified): the EC50 is over 200 µM and the IC50 was found to be 126 µM.

As for `Cn1c(=O)n2n(c1=O)C1(CCO)CCC2(CCO)CC1`, the EC50 is over 331 µM and the IC50 is over 331 µM.

Turning to `COc1ccc(C2=C(N)c3cc(OC)ccc3C2=O)cc1`, the EC50 was over 200 µM and the IC50 is over 200 µM.

Regarding `COc1ccc(Nc2nc(NNC(=O)Cc3ccccc3)nc(NNC(=O)c3ccncc3)n2)cc1`, the EC50 is over 178 µM and the IC50 came to 174 µM.

As for `CC1CC(c2ccccc2)=Nc2ccccc2S1` (stereo unspecified), the EC50 was over 14.1 µM and the IC50 is over 14.1 µM.

For the compound `Cc1cc(C)nc(NS(=O)(=O)c2ccc(NNc3c4ccccc4nc4c(C(=O)Nc5ccc(S(N)(=O)=O)cc5)cccc34)cc2)n1`, the EC50 is over 200 µM and the IC50 came to 11 µM.

For `O=C(Cn1ccnc1[N+](=O)[O-])NCc1ccccc1`, the result was inactive.

In the case of `COC(=O)C(Cc1c[nH]c2ccccc12)NP(=O)(O)OCC1OC(n2cc(F)c(=O)[nH]c2=O)CC1O` (stereo unspecified), the EC50 was over 200 µM and the IC50 was over 200 µM.

In the case of `CSc1nc2cc(Cl)ccc2c2c1C=NCCN2`, the EC50 is over 93.3 µM and the IC50 is 15.8 µM.

In the case of `Cn1c(=O)n(-c2c3ccccc3c(Cl)c3ccccc23)n(C(C)(C)C)c1=O`, the EC50 was over 100 µM and the IC50 is over 100 µM.

Consider `Nc1ncnc2c1ncn2[C@H]1C(CO)CC1(F)F` (stereo partly specified), for which the EC50 is over 182 µM and the IC50 was over 182 µM.

Regarding `NC(=O)c1ccc([Se][Se]c2ccc(C(N)=O)cc2)cc1`, the EC50 was over 13.2 µM and the IC50 was determined as 6.92 µM.

`COc1ccc(OC)c2[nH]c(Sc3c([N+](=O)[O-])ncn3C)nc12`: the EC50 was over 21.4 µM and the IC50 turned out to be 7.08 µM.

For `COc1ccc(CC2C(=O)NC(C)C(=O)N(C)C3Cc4ccc(cc4)Oc4cc(ccc4O)CC(C(=O)NC(C)C(=O)NC(C)C(=O)N2C)N(C)C3=O)cc1` (stereo unspecified), the EC50 was over 0.2 µM and the IC50 came out at 0.0631 µM.

For the compound `C=C(CN(C)C)C(=O)c1ccc(C)cc1C`, the EC50 is over 200 µM and the IC50 came to 11.7 µM.
